Our source for the IC50 and Km values is patent US20130116304A1, “TMEM195 ENCODES FOR TETRAHYDROBIOPTERIN-DEPENDENT ALKYLGLYCEROL MONOOXYGENASE ACTIVITY” (priority 2010, published 2013).

The target of data set [1] is T1, alkylglycerol monooxygenase (TMEM195) (Homo sapiens, UniProt Q6ZNB7).
T1 construct: host or cells: CHO-K1 cells, transiently transfected with ExGen 500; pellets opened in water with 0.5% CHAPS
T1 sequence (Q6ZNB7 1-445): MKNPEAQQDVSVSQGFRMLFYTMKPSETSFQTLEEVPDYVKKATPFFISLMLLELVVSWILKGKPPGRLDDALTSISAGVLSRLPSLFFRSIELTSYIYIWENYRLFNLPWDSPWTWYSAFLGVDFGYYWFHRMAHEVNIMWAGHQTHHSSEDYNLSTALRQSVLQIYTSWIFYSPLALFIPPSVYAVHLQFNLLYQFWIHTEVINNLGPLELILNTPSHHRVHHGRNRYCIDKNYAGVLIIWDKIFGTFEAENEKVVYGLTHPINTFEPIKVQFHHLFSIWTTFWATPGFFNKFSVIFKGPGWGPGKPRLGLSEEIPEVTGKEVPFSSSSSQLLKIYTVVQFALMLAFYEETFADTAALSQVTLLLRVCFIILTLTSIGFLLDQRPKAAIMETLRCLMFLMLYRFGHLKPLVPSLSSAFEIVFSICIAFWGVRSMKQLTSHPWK
As to the kind of experiment: Alkylglycerol monooxygenase activity generated in CHO cells by transfection of TMEM195 and ALDH3A2 (pyrenedecanoic acid, HPLC with fluorescence detection). It counts as biochemical. Particulars: mean±SEM.
Description: A pyrene-labelled alkylglycerol (1-O-pyrenedecyl-sn-glycerol) was used as substrate which was converted to pyrenedecanal by alkylglycerol monooxygenase. […] The reaction was started by addition of the protein and incubated for 60 min at 37° C. in the dark. Negative controls without protein (concentration of pyrenedecanoic acid <1 nM) and rat liver microsomes as positive controls were always run in parallel. After addition of 30 μl methanol and centrifugation for 5 min at 16,000 g, 10 μl of the sample were injected to a Zorbax XDB-C8 rapid resolution column (Agilent Technologies, Vienna, Austria) using an Agilent 1200 Series HPLC system. […] Pyrenedecanoic acid was detected by fluorescence (340 nm excitation and 400 nm emission, detection limit 1 nM).
80,000 Chinese hamster ovary Ki cells (CHO-K1, LGC Promochem, Wesel, Germany) were transfected with 1 μg of expression plasmids or plasmid pools using the ExGen 500 transfection agent (Fermentas, St. Leon-Rot, Germany) and standard protocols. […] For control of transfection efficiency, a plasmid encoding enhanced green fluorescent protein (pEGFP-N1, Clonetech, Mountain View, Calif., USA) was used and fluorescence quantified directly in the culture plates by a Typhoon 9410 scanner (GE Healthcare). […] Alkylglycerol monooxygenase activity (22) and fatty aldehyde dehydrogenase activity (31) were then determined as described.

In data set [2] the target is T2, alkylglycerol monooxygenase (Rattus norvegicus, UniProt A0JPQ8).
T2 construct: those found in rat liver microsomes (KM 8.90 μM for 1-O-pyrenedecylglycerol); from tissue; host or cells: rat liver microsomes
T2 sequence (A0JPQ8 1-447): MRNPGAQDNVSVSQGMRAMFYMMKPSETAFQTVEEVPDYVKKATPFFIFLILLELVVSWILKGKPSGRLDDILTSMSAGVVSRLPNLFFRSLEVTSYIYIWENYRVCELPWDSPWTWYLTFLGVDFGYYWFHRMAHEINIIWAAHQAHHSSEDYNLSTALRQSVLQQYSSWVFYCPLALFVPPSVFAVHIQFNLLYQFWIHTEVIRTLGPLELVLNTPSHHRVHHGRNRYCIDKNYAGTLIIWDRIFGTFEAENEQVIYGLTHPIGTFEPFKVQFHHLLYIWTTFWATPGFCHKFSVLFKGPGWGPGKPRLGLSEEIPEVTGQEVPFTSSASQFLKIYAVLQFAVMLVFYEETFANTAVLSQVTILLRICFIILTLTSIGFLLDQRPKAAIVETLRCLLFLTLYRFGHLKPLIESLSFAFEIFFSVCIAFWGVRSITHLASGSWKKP
Particulars: rat liver microsomes; from reference (22); cited from earlier work. Background: Microsomes from liver hold many membrane-bound enzymes, among them those of drug oxidation.

Substrate in data set [3]: C[C@H](O)[C@H](O)[C@H]1CNc2nc(N)[nH]c(=O)c2N1
Description: purified protein, by the assay type. The note with it: other: activity generated in CHO cells by transfection of TMEM195 and ALDH3A2; KM for substrate or cofactor; mean±SEM; 37.0 °C.

In the case of `c1cnc2c(c1)ccc1cccnc12` [1,10-Phenanthroline], the IC50 in data set [1] (activity generated in CHO cells by transfection, read-out: 50% inhibition of alkylglycerol monooxygenase activity) is 1.39 ± 0.38 µM.

Regarding `OC[C@H](O)COCCCCCCCCCCc1ccc2ccc3cccc4ccc1c2c34` [1-O-pyrenedecylglycerol, 1-O-pyrenedecyl-sn-glycerol], the Michaelis constant (Km) – broadly, the concentration of substrate that gives half-maximal velocity – in data set [2] is 8.9 µM; in data set [1] (activity generated in CHO cells by transfection of TMEM195 and ALDH3A2, KM for substrate or cofactor, read-out: Michaelis Menten constant (KM)), 11 ± 1.1 µM.

As for `C[C@H](O)[C@H](O)[C@H]1CNc2nc(N)[nH]c(=O)c2N1` [tetrahydrobiopterin], the Km in data set [2] was 2.6 µM.

B1: alkylglycerol monooxygenase (TMEM195) (Homo sapiens) (protein)
chain: MKNPEAQQDVSVSQGFRMLFYTMKPSETSFQTLEEVPDYVKKATPFFISLMLLELVVSWILKGKPPGRLDDALTSISAGVLSRLPSLFFRSIELTSYIYIWENYRLFNLPWDSPWTWYSAFLGVDFGYYWFHRMAHEVNIMWAGHQTHHSSEDYNLSTALRQSVLQIYTSWIFYSPLALFIPPSVYAVHLQFNLLYQFWIHTEVINNLGPLELILNTPSHHRVHHGRNRYCIDKNYAGVLIIWDKIFGTFEAENEKVVYGLTHPINTFEPIKVQFHHLFSIWTTFWATPGFFNKFSVIFKGPGWGPGKPRLGLSEEIPEVTGKEVPFSSSSSQLLKIYTVVQFALMLAFYEETFADTAALSQVTLLLRVCFIILTLTSIGFLLDQRPKAAIMETLRCLMFLMLYRFGHLKPLVPSLSSAFEIVFSICIAFWGVRSMKQLTSHPWK
As for B1, the Km in data set [3] worked out at 2.58 ± 0.42 µM.
